Patent US6632429B1, “Methods for treating pervasive development disorders” (priority 1999, dated 2003)
No end group written: not given here.

Tests used:
[1] = tested on: children diagnosed as having autism; test: Experiment 1: Fecal Chymotrypsin Test after secretin infusion; type: in vivo, human (children); settings: each of 16 autistic children; approximately one week after first secretin infusion, 1 U/kg IV
Description: (§1) In this experiment, 16 children diagnosed as having autism were administered the following Fecal Chymotrypsin Test in accordance with an embodiment of the invention. First, approximately 2 grams of stool were collected from each child and placed in a sterile container (although it is to be understood that any quantity of stool may be collected, as 2 grams of stool is not a required amount). Each stool sample was then analyzed using, e.g., an enzymatic photospectrometry analysis as is known by those skilled in the art, to determine the level of fecal chymotrypsin in the stool. Although the enzymatic photospectrophotometry process is preferred, any suitable conventional method may be used for measuring the fecal chymotrypsin levels. The measured chymotrypsin levels of the 16 autistic children are illustrated in FIG. 13.
After determining the chymotrypsin levels of the stools, each of these levels were compared with threshold chymotrypsin levels to determine if the child was likely to benefit from secretin administration. […]
The results of Experiment 1 are illustrated in FIGS. 1-14. For instance, approximately one week after the first secretin infusion, the fecal chymotrypsin level of each of the 16 autistic children was measured again. […]

[2] = tested on: children diagnosed as having autism; test: Experiment 1: CARS (Childhood Autism Rating Scale) test pre/post secretin; type: in vivo, human (children); settings: 16 autistic children
Description: Upon determining that a given child was likely to benefit from secretin administration based on the results of the fecal chymotrypsin test, the child was administered a CARS (Childhood Autism Rating Scale) test prior to being scheduled for secretin infusion.
For each of the 16 autistic children tested, a preferred secretin infusion process according to the present invention was performed involving the administering of 1 U/kg of body weight of Secretin-Ferring for a period of nine months at intervals of approximately 6 weeks. In addition, another CARS test was administered to each of the 16 autistic children 3 weeks post secretin administration to determine if their autism had changed post infusion.
A preferred secretin infusion process includes the initial step of prepping an arm of the candidate child with an IV injection of saline. A test dose of 1 U of Secretin-Ferring is then administered to the child. Approximately one minute after infusion, the child is examined for signs of allergic reaction including rash, increased heart rate, and increase of blood pressure. […] Subsequently, each child receives a 1U/kg of body weight infusion of Secretin-Ferring approximately every 6 weeks for 9 months. It is to be understood that any commercially available form of secretin may be used. […]

[3] = tested on: autistic children with abnormal fecal chymotrypsin levels; test: Experiment 2: fecal chymotrypsin levels during 6 months of secretin administration; type: in vivo, human (children); settings: of 37 children, 6 months post-secretin administration
Description: as §1
After determining the chymotrypsin levels of the stools, each of these levels were compared with threshold chymotrypsin levels to determine if the child was likely to benefit from secretin administration. By way of example, with the fecal chymotrypsin tests of the stool samples being performed at 30° C. normal levels of chymotrypsin are deemed to lie above 8.4 U/gram, whereas pathologically abnormal levels are deemed to lie below 4.2 U/gram. In addition, chymotrypsin levels between 8.4 U/gram and 4.2 U/gram are considered equivocal, and further testing of the individual's fecal chymotrypsin levels over a period of time should be performed.
A preferred secretin infusion process includes the initial step of prepping an arm of the candidate child with an IV injection of saline. A test dose of 1 U of Secretin-Ferring is then administered to the child. […]
In this experiment, 37 autistic children with abnormal fecal chymotrypsin levels were administered secretin over the course of 6 months using the secretin infusion process described above. Their fecal chymotrypsin (FC) levels were measured weekly using the fecal chymotrypsin test described above.

[4] = tested on: children diagnosed with Autism; settings: secretin given as diagnostic procedure during upper gastrointestinal endoscopy (Horvath et al. 1998); cited from earlier work

secretin (HSDGTFTSELSRLRDSARLQRLLQGLV; ends and bridges not checked; UniProt P63298 33-59, looked up) [gastrointestinal peptide hormone]
fecal chymotrypsin level post-secretin administration compared with pre-secretin [1]: increased | CARS component scores (all except fear) ([2]; 3 weeks post infusion): improvement | CARS scores, overall change ([2]; approximately 3 weeks after first secretin administration vs pre-secretin): overall decrease | # Autistic Children w/Equivocal FC levels ([3]; pre-secretin 0): 2 | # Autistic Children w/normal FC levels ([3]; pre-secretin 0): 34 | # Autistic Children w/Abnormal FC levels ([3]; pre-secretin 37): 1 | symptoms associated with Autism after secretin administration [4]: ameliorating the symptoms
